One block for each compound: values may come before it.
Key:
[1] = Half life in C57BL/6 mouse at 100 mg/kg, ip at pH 7.4 measured after 24 hrs; format: ADME, organism-based; details: in vivo
[2] = Half life in rat at 0.1 mg/kg, IG at pH 1.2 measured for 24 hrs; format: ADME, organism-based; details: in vivo, po
[3] = Half life in rat at 0.1 mg/kg, IG at pH 7.4 measured for 24 hrs; format: ADME, organism-based; details: in vivo, po
Mus musculus = assay: Anti-colitis activity against TNBS-induced C57BL/6 mouse model assessed as survival rate at 15 mg/kg, ip; format: functional
[4] = Half life in mouse at 15 mg/kg, ip at pH 7.4 measured at 24 to 72 hrs; format: ADME, organism-based; details: in vivo, time 24-72 hrs

half-life [1]: 1.9 min
SMILES: C#CCN(C)C(=O)C1=C2C(=C(c3ccccc3)C1=O)c1cccc3cccc2c13

half-life [2]: 17.1 min | half-life [3]: 24.1 min
SMILES: C#CC(C)(C)NC(=O)C1=C2C(=C(c3ccccc3)C1=O)c1cccc3cccc2c13

SMILES: C#CCCN(C(=O)C1=C2C(=C(c3ccccc3)C1=O)c1cccc3cccc2c13)C(C)C
Activity (Mus musculus): 75% | half-life [4]: 72 min
